Like-named read-outs stand apart in the source and are kept apart here.

This assay concerns the target HCV NS3 protease (UniProt P26663). It counts as biochemical, HCV genotype 1b. On the set-up: rows headed: IC50 (μM); IC50 (μM). The method, then: Recombinant HCV NS3 Protease/NS4A Cofactor Peptide Radiometric Assay
The enzyme was cloned, expressed and prepared according to the protocol described in Example 36. The enzyme was stored at −80° C., thawed on ice and diluted just prior to use in the assay buffer containing the NS4A cofactor peptide.
The substrate used for the NS3 protease/NS4A cofactor peptide radiometric assay, DDIVPC-SMSYTW, is cleaved between the cysteine and the serine residues by the enzyme. The sequence DDIVPC-SMSYTW corresponds to the NS5A/NS5B natural cleavage site in which the cysteine residue in P2 has been substituted for a proline. […] (molar ratio enzyme:cofactor 1:100) in the absence or presence of inhibitors. The separation of substrate from products is performed by adding avidin-coated agarose beads to the assay mixture followed by filtration. The amount of SMS[^125I-Y]TW product found in the filtrate allows for the calculation of the percentage of substrate conversion and of the percentage of inhibition.
The enzymatic reaction was initiated by the addition of the enzyme/NS4A peptide solution and the assay mixture was incubated for 40 min at 23° C. under gentle agitation. Ten (10) μL of 0.5N NaOH were added and 10 μL 1 M MES, pH 5.8 were added to quench the enzymatic reaction.
A non-linear curve fit with the Hill model was applied to the inhibition-concentration data, and the 50% effective concentration (IC50) was calculated by the use of SAS software (Statistical Software System; SAS Institute, Inc. Cary, N.C.). […]
The NS2-NS5B-3′ non coding region was cloned by RT-PCR into the pCR®3 vector (Invitrogen) using RNA extracted from the serum of an HCV genotype 1b infected individual (provided by Dr. Bernard Willems, Hôpital St-Luc, Montréal, Québec, Canada). The NS3-NS4A DNA region was then subcloned by PCR into the pFastBac™ HTa baculovirus expression vector (Gibco/BRL). The vector sequence includes a region encoding a 28-residue N-terminal sequence which contains a hexahistidine tag. The Bac-to-Bac™ baculovirus expression system (Gibco/BRL) was used to produce the recombinant baculovirus. The full length mature NS3 and NS4A heterodimer protein (His-NS3-NS4AFL) was expressed by infecting 10^6 Sf21 cells/mL with the recombinant baculovirus at a multiplicity of infection of 0.1-0.2 at 27° C. The infected culture was harvested 48 to 64 h later by centrifugation at 4° C. The cell pellet was homogenized in 50 mM NaPO4, pH 7.5, 40% glycerol (w/v), 2 mM β-mercaptoethanol, in presence of a cocktail of protease inhibitors. His-NS3-NS4AFL was then extracted from the cell lysate with 1.5% NP-40, 0.5% Triton X-100, 0.5M NaCl, and a DNase treatment. After ultracentrifugation, the soluble extract was diluted 4-fold and bound on a Pharmacia Hi-Trap Ni-chelating column. […] The His-NS3-NS4AFL was stored at −80° C. in 50 mM sodium phosphate, pH 7.5, 10% (w/v) glycerol, 0.5 M NaCl, 0.25 M imidazole, 0.1% NP-40. It was thawed on ice and diluted just prior to use. The protease activity of His-NS3-NS4AFL was assayed in 50 mM Tris-HCl, pH 8.0, 0.25 M sodium citrate, 0.01% (w/v) n-dodecyl-β-D-maltoside, 1 mM TCEP. Five (5) μM of the internally quenched substrate anthranilyl-DDIVPAbu[C(O)—O]-AMY(3-NO2)TW-OH in presence of various concentrations of inhibitor were incubated with 1.5 nM of His-NS3-NS4AFL for 45 min at 23° C. […] The reaction was terminated with the addition of 1M MES, pH 5.8. Fluorescence of the N-terminal product was monitored on a Perkin-Elmer LS-50B fluorometer equipped with a 96-well plate reader (excitation wavelength: 325 nm; emission wavelength: 423 nm).
The following tables list compounds representative of the invention.

Sequence of HCV NS3 protease (P26663 1027-1206, other chains not shown): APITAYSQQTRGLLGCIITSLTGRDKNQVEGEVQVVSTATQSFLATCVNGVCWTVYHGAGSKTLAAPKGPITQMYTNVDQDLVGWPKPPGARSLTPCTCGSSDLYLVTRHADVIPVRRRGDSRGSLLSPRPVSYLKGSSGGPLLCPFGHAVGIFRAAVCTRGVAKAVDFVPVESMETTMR

Consider `C=CC1CC1(NC(=O)C1CC(Oc2cc(-c3ccccc3)nc3cc(SC)ccc23)CN1C(=O)C(NC(=O)OC(C)(C)C)C(C)(C)C)C(=O)O` (stereo not drawn) [compound 625], for which the IC50 – broadly, the midpoint of a concentration-inhibition curve – (Table 6) is 160 nM.

Consider `C=CC1CC1(NC(=O)C1CC(Oc2cc(-c3csc(-c4csc(C)n4)n3)nc3cc(OC)ccc23)CN1C(=O)C(NC(=O)OC(C)(C)C)C(C)(C)C)C(=O)O` (stereo not drawn) [compound 732], for which, where the note is “Table 7”, the IC50 was 20 nM.

In turn, `C=CC1CC1(NC(=O)C1CC(Oc2cc(SCC)nc3cc(OC)ccc23)CN1C(=O)C(NC(=O)OC(C)(C)C)C(C)(C)C)C(=O)O` (stereo not drawn) [compound 734] registered a half-inhibitory concentration (IC50) (Table 7) of 44 nM. Still for that read-out and setting: the same measure for `C=CC1CC1(NC(=O)C1CC(Oc2cc(N3CCC(C)CC3)nc3cc(OC)ccc23)CN1C(=O)C(NC(=O)OC(C)(C)C)C(C)(C)C)C(=O)O` (stereo not drawn) [compound 724]: 75 nM. `C=CC1CC1(NC(=O)C1CC(Oc2cc(-c3ccccc3OC)nc3cc(OC)ccc23)CN1C(=O)C(NC(=O)OC(C)(C)C)C(C)(C)C)C(=O)O` (stereo not drawn) [compound 823]: the IC50 (Table 8) came to 107 nM. `C=CC1CC1(NC(=O)C1CC(Oc2cc(-c3csc(CC)n3)nc3cc(OC)ccc23)CN1C(=O)C(NC(=O)OC(C)(C)C)C(C)(C)C)C(=O)O` (stereo not drawn) [compound 714] returned an IC50 (Table 7) of 12 nM. This counts as double-digit nanomolar. `C=CC1CC1(NC(=O)C1CC(Oc2ccnc3ccccc23)CN1C(=O)C(NC(=O)OC(C)(C)C)C(C)(C)SCc1ccc(C)cc1)C(=O)O` (stereo not drawn) [compound 508] yielded an IC50 (Table 5) of 3100 nM. `C=CC1CC1(NC(=O)C1CC(Oc2ccnc3cc(Cl)ccc23)CN1C(=O)C(CC(C)C)NC(=O)OC(C)(C)C)C(=O)O` (stereo not drawn) [compound 608]: under “Table 6”, half-maximal inhibition (IC50) was put at 1450 nM. Regarding `COc1ccc2c(OC3C[C@@H](C(=O)NC4(C(=O)O)CCC4)N(C(=O)[C@@H](NC(=O)OC(C)(C)C)C(C)(C)C)C3)cc(-c3ccccc3)nc2c1` (stereo partly drawn) [compound 403], the IC50 (Table 4) was 132 nM.

Regarding `C=CC1CC1(NC(=O)C1CC(Oc2ccnc3cc(Cl)ccc23)CN1C(=O)C(NC(=O)OC(C)(C)C)C(C)C)C(=O)O` (stereo not drawn) [compound 607], where the note is “Table 6”, it took 450 nM to reach half-maximal inhibition (IC50). For `C=CC1CC1(NC(=O)C1CC(Oc2cc(-c3ccccc3)nc3cc(OC)ccc23)CN1C(=O)C(NC(=O)OC(C)(C)C)C(C)OC)C(=O)O` (stereo not drawn) [compound 851], half-maximal inhibition (Table 8) (IC50) was put at 120 nM. `C=CC1CC1(NC(=O)C1CC(Oc2cc(-c3csc(NCC)n3)nc3cc(OC)ccc23)CN1C(=O)C(NC(=O)OC(C)(C)C)C(C)(C)C)C(=O)O` (stereo not drawn) [compound 722] yielded a 50% inhibitory concentration (IC50) (Table 7) of 48 nM. Turning to `C=CC1CC1(NC(=O)C1CC(Oc2cc(-c3ccccc3)nc3cc(CC)ccc23)CN1C(=O)C(NC(=O)OC(C)(C)C)C(C)C)C(=O)O` (stereo not drawn) [compound 603], the IC50 (Table 6) stood at 195 nM. On to `C=CC1CC1(NC(=O)C1CC(Oc2cc(-c3ccccc3)nc3cc(OC)ccc23)CN1C(=O)C(NC(=O)NC(C)(CC)CC)C(C)(C)C)C(=O)O` (stereo not drawn) [compound 871], for which the midpoint of inhibition (Table 8), the IC50, lay at 11 nM. For the molecule `C=CC1CC1(NC(=O)C1CC(Oc2cc(CN(C)C)nc3ccccc23)CN1C(=O)C(NC(=O)OC(C)(C)C)C(C)(C)C)C(=O)O` (stereo not drawn) [compound 618], the IC50 (Table 6) came to 2300 nM. In turn, `C=CC1CC1(NC(=O)C1CC(Oc2cc(-c3ccccc3)nc3cc(OC)ccc23)CN1C(=O)C(NC(=O)C(C)C1CCCCC1)C(C)(C)C)C(=O)O` (stereo not drawn) [compound 806] returned an IC50 (Table 8) of 36 nM. For the molecule `C=CC1CC1(NC(=O)C1CC(Oc2cc(-c3ccccc3C)nc3cc(OC)ccc23)CN1C(=O)C(NC(=O)OC(C)(C)C)C(C)(C)C)C(=O)O` (stereo not drawn) [compound 841], the 50% inhibitory concentration (IC50) (Table 8) was found to be 240 nM. This IC50 is about 6.7-fold higher than that of the molecule before. The molecule `C=CC1CC1(NC(=O)C1CC(Oc2cc(CN3CCCC3)nc3ccccc23)CN1C(=O)C(NC(=O)OC(C)(C)C)C(C)(C)C)C(=O)O` (stereo not drawn) [compound 614] had an IC50 (Table 6) of 2200 nM.

Regarding `C=CC1CC1(NC(=O)C1CC(Oc2cc(-c3ccccc3)nc3cc(OC)ccc23)CN1C(=O)C(NC1CCCCC1)C(C)C)C(=O)O` (stereo not drawn) [compound 859], the IC50 (Table 8) was 830 nM. That is a sub-micromolar value.

Consider `C=CC1CC1(NC(=O)C1CC(Oc2cc(-c3ccccn3)nc3cc(OC)ccc23)CN1C(=O)C(NC(=O)OC(C)(C)C)C(C)(C)C)C(=O)O` (stereo not drawn) [compound 715], for which the IC50 (Table 7) turned out to be 31 nM. This counts as double-digit nanomolar. `C=CC1CC1(NC(=O)C1CC(Oc2cc(OCC)nc3ccccc23)CN1C(=O)C(NC(=O)OC(C)(C)C)C(C)(C)C)C(=O)O` (stereo not drawn) [compound 622] displayed a concentration for half-maximal inhibition (IC50) (Table 6) of 160 nM.

The values above are taken from patent US6534523B1, “Hepatitis C inhibitor tri-peptides” (Boehringer Ingelheim (Canada) Ltd., priority 1998, dated 2003).
